This note sets out measurements from paper PMC5026067, “Substrate Fragmentation for the Design of M. tuberculosis CYP121 Inhibitors” (Chemmedchem, 2016).

What all share (type): binding
The target in assay [1] is T1, Mtb CYP121 (Mycobacterium tuberculosis, UniProt P9WPP7). The experiment in a line: UV/vis optical titration (Soret shift). The source says: UV/vis optical titration (Soret shift) on Mtb CYP121
Assay [2] concerns the target CYP142 (Mycobacterium tuberculosis, UniProt P9WPL5). In words: UV/vis Soret shift. The conditions noted are these: 2000 µM; […] ligand, […] DMSO; type II. The source says:
UV/vis Soret shift on CYP142

The target in assay [3] is T1, Mtb CYP121. The experiment in a line: thermal shift assay. The source says:
thermal shift assay on Mtb CYP121

Assay [4] has as its target CYP124 (Mycobacterium tuberculosis, UniProt P9WPP3). The experiment in a line: UV/vis Soret shift. The note with it: […] ligand, […] DMSO, weak blue shift.

Where two headings read alike, the source gives them in different places.

T1 sequence (P9WPP7 whole entry): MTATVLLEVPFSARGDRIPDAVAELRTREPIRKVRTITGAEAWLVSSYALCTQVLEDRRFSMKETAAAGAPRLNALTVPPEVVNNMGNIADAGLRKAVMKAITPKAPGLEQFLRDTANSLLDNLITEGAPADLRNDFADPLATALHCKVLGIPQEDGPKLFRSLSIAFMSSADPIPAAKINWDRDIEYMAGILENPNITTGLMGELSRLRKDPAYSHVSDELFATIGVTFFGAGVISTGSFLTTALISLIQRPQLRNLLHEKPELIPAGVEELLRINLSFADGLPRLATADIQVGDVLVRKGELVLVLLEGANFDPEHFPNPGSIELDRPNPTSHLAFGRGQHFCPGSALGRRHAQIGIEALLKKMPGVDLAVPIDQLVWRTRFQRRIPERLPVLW
Sequence of CYP124 (P9WPP3 whole entry): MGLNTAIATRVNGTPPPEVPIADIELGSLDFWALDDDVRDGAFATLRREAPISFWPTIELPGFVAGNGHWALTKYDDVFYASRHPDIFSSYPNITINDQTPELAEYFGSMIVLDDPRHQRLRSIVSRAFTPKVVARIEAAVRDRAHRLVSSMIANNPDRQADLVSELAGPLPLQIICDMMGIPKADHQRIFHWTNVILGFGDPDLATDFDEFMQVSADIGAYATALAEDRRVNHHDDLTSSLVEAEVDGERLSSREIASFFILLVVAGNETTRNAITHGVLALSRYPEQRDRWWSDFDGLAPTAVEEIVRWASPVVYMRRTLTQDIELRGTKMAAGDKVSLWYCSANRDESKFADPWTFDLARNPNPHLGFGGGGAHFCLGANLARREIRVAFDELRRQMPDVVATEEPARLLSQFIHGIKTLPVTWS
Sequence of CYP142 (P9WPL5 whole entry): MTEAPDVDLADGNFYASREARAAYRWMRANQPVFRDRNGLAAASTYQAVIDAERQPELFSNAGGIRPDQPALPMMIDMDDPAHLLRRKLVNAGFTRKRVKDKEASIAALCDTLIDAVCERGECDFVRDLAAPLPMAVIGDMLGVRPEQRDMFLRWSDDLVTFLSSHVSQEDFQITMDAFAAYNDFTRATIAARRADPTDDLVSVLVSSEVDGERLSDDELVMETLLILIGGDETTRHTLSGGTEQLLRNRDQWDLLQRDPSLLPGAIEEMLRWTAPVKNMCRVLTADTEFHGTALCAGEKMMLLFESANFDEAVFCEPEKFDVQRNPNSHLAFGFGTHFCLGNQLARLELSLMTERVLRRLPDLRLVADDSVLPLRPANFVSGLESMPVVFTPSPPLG

`NC(Cc1c[nH]c2ccc(O)cc12)C(=O)SCCc1ccccc1` (racemic) [compound 26, compound 26 (5-hydroxy indole)]: the Kd in assay [1] (read-out: K d [μM]^[b]) was 130 ± 9.3 µM. Still for that read-out and setting: with `N[C@@H](Cc1c[nH]c2ccccc12)C(=O)OCCc1ccccc1` [compound 3, L-phenethyl ester 3] the figure was 200 ± 19 µM. On to `COC(=O)[C@H](N)Cc1c[nH]c2ccccc12` [1a, D-tryptophan methyl ester], for which the Kd in assay [1] (read-out: K d [μM]^[b]) turned out to be 840 ± 88 µM. Moreover, in assay [2], the CYP142 result was “+2 nm”. For the molecule `N[C@H](Cc1c[nH]c2ccccc12)C(=S)NCCc1ccccc1` [compound 12, thioamide 12], the Kd in assay [1] (read-out: K d [μM]^[b]) is 150 ± 18 µM. Same read-out and setting: in the case of `N[C@H](Cc1c[nH]c2ccccc12)C(=O)SCC1CC(c2ccccc2)=NO1` (stereo partly shown) [compound 25, phenyl-isoxazole-substituted compound 25] it was 35 ± 4.2 µM.

As for `N[C@H](Cc1c[nH]c2ccccc12)c1nc(-c2ccccc2)c[nH]1` [compound 14, imidazole 14], the Kd in assay [1] was 530 ± 100 µM. As for `NC(Cc1ccccc1Br)C(=O)SCCc1ccccc1` (stereo not shown) [compound 30, 2-bromophenylalanine derivative 30], the Kd in assay [1] (read-out: K d [μM]^[b]) worked out at 30 ± 3.8 µM.

Turning to `COC(=O)[C@H](N)Cc1ccc(O)cc1` [1b, D-tyrosine methyl ester], the shift in melting temperature (ΔTm) – broadly, the change in melting temperature against a reference sample – at 5000 µM in assay [3] turned out to be 3 °C. As for `NC(Cc1c[nH]c2ccc(Br)cc12)c1nc(-c2ccccc2)cs1` (racemic) [compound 32, compound 32 (5-bromo-tryptophan phenyl-thiazole)], the Kd in assay [1] (read-out: K d [μM]^[b]) was 32 ± 2.5 µM. The same measure, in the same setting: with `N[C@H](Cc1c[nH]c2ccccc12)C(=O)OC/C=C/c1ccccc1` [compound 20, compound 20 (trans-alkene)] the figure was 120 ± 21 µM. In the case of `NC(Cc1c[nH]c2ccc(Br)cc12)C(=O)SCCc1ccccc1` (racemic) [compound 31, compound 31 (5-bromo-tryptophan phenethyl-thioester)], in assay [1] (read-out: K d [μM]^[b]), the Kd was 16 ± 2.4 µM. Also, the CYP124 in assay [4] (10 µM) is on record as −2 nm. For the molecule `N[C@H](Cc1c[nH]c2ccccc12)C(=O)OCCc1ccccc1` [compound 2, phenethyl ester 2], in assay [1] (read-out: K d [μM]^[b]), the Kd is 200 ± 17 µM. On the same count and under the same terms, with `N[C@H](Cc1c[nH]c2ccccc12)C(=O)NCCc1ccccc1` [compound 8, acyclic cWF-8] the figure was 270 ± 22 µM.

Regarding `N[C@H](Cc1c[nH]c2ccccc12)C(=O)NCCc1c[nH]c2ccccc12` [compound 9, acyclic cWW-9], the Kd in assay [1] (read-out: K d [μM]^[b]) stood at 110 ± 6 µM. Further, in assay [4] (100 µM), the CYP124 is −2 nm.

Consider `NC(Cc1c[nH]c2ncccc12)C(=O)SCCc1ccccc1` (racemic) [compound 27, aza-tryptophan analogue 27], for which the Kd in assay [1] (read-out: K d [μM]^[b]) stood at 110 ± 9.1 µM. Same read-out and setting: in the case of `N[C@H](Cc1c[nH]c2ccccc12)C(=O)NCCc1ccc(O)cc1` [compound 7, acyclic cYW-7] it was 260 ± 14 µM; in that of `N[C@H](Cc1c[nH]c2ccccc12)C(=O)SCCc1c[nH]c2ccccc12` [compound 17, indole-substituted thioester 17], 45 ± 4.4 µM. Still for that read-out and setting: with `N[C@H](Cc1c[nH]c2ccccc12)c1nc(-c2ccccc2)cs1` [compound 13, thiazole 13] the figure was 44 ± 3.6 µM; with `N[C@H](Cc1c[nH]c2ccccc12)c1nc(Cc2c[nH]c3ccccc23)cs1` [compound 18, indole-substituted thiazole 18], 52 ± 3.1 µM.
